Measured values from PubChem BioAssay (NCI).
Several values for one entry are separate records, joined by “and”; a condition that tells them apart may be missing. Equal values may be shown once.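 Step 1: Grow cells in 96-well plates. Step 2: Expose to compound for 48 hours at 5 concentrations. Step 3: Interpolate endpoints linearly; if unreached, use highest concentration. GI50: concentration for 50% inhibition of growth. The concentration for full growth arrest is given as TGI.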

Legend:
Test in all cases: NCI-60 cell line screen, 48 h
[1] = tested on: LOX IMVI melanoma
[2] = tested on: U251 CNS
[3] = tested on: HCC-2998 colon
[4] = tested on: T-47D breast
[5] = tested on: SNB-75 CNS
[6] = tested on: SK-OV-3 ovarian
[7] = tested on: SR leukemia
[8] = tested on: SF-539 CNS
[9] = tested on: SK-MEL-5 melanoma
[10] = tested on: KM12 colon
[11] = tested on: OVCAR-5 ovarian
[12] = tested on: SF-295 CNS
[13] = tested on: ACHN renal
[14] = tested on: A498 renal
[15] = tested on: COLO 205 colon
[16] = tested on: UO-31 renal
[17] = tested on: DU-145 prostate
[18] = tested on: MCF7 breast
[19] = tested on: A549 NSCLC
[20] = tested on: MOLT-4 leukemia
[21] = tested on: UACC-62 melanoma
[22] = tested on: SK-MEL-2 melanoma
[23] = tested on: BT-549 breast
[24] = tested on: OVCAR-4 ovarian
[25] = tested on: HOP-92 NSCLC
[26] = tested on: MALME-3M melanoma
[27] = tested on: CAKI-1 renal
[28] = tested on: OVCAR-8 ovarian
[29] = tested on: RPMI-8226 leukemia
[30] = tested on: NCI-H460 lung
[31] = tested on: HS 578T breast
[32] = tested on: HT29 colon
[33] = tested on: EKVX NSCLC
[34] = tested on: 786-0 renal
[35] = tested on: SN12C renal
[36] = tested on: MDA-MB-435
[37] = tested on: NCI-H23 lung
[38] = tested on: M14 melanoma
[39] = tested on: HOP-62 NSCLC
[40] = tested on: NCI/ADR-RES ovarian
[41] = tested on: UACC-257 melanoma
[42] = tested on: PC-3 prostate
[43] = tested on: MDA-MB-231 breast
[44] = tested on: SNB-19 CNS
[45] = tested on: IGROV1 ovarian
[46] = tested on: HCT-116 colon
[47] = tested on: K-562 leukemia
[48] = tested on: CCRF-CEM leukemia
[49] = tested on: NCI-H522 lung
[50] = tested on: HL-60(TB) leukemia
[51] = tested on: SW-620 colon
[52] = tested on: SF-268 CNS
[53] = tested on: HCT-15 colon
[54] = tested on: RXF 393 renal
[55] = tested on: OVCAR-3 ovarian
[56] = tested on: NCI-H226 lung
[57] = tested on: SK-MEL-28 melanoma
[58] = tested on: TK-10 renal

Structure (SMILES): CCc1cnn2c(NCc3ccc[n+]([O-])c3)cc(N3CCCC[C@H]3CCO)nc12
- GI50 [1]: < 10 nM and 2.76 nM
- TGI [1]: > 100000 nM
- GI50 [2]: < 10 nM and 3.68 nM
- TGI [2]: > 100000 nM
- GI50 [3]: < 10 nM and 4.5 nM
- TGI [3]: 49.2 nM and 34.7 nM
- GI50 [4]: < 10 nM and 4.85 nM
- TGI [4]: 77.7 nM
- GI50 [5]: < 10 nM and 1.74 nM
- TGI [5]: < 14.5 nM and 4.37 nM
- GI50 [6]: 39.1 nM and 33.8 nM
- TGI [6]: > 100000 nM
- GI50 [7]: < 10 nM and 1.6 nM
- TGI [7]: < 10 nM
- GI50 [8]: < 10 nM and 2.28 nM
- TGI [8]: < 11.6 nM and 7.56 nM
- GI50 [9]: < 10 nM and 4.69 nM
- TGI [9]: 23.7 nM and 207 nM
- GI50 [10]: < 10 nM and 3.4 nM
- TGI [10]: > 10000 nM
- GI50 [11]: < 10 nM and 4.92 nM
- TGI [11]: > 35700 nM
- GI50 [12]: < 12.9 nM and 7.32 nM
- TGI [12]: 96.2 nM and 60.2 nM
- GI50 [13]: < 15.5 nM and 13.2 nM
- TGI [13]: > 10000 nM
- GI50 [14]: 2.9 nM
- TGI [14]: 9.04 nM
- GI50 [15]: < 10 nM and 2.35 nM
- TGI [15]: < 10 nM and 5.86 nM
- GI50 [16]: 20.1 nM and 22.8 nM
- TGI [16]: 69.2 nM
- GI50 [17]: < 12.7 nM and 7.28 nM
- TGI [17]: > 10000 nM
- GI50 [18]: < 10 nM and 2.21 nM
- TGI [18]: > 100000 nM
- GI50 [19]: < 16.3 nM and 8.53 nM
- TGI [19]: > 10000 nM
- GI50 [20]: < 10 nM and 3.93 nM
- TGI [20]: < 13.6 nM
- GI50 [21]: < 10 nM and 3.45 nM
- TGI [21]: 30.7 nM and 16.8 nM
- GI50 [22]: < 10 nM and 3.15 nM
- TGI [22]: 23.7 nM and 10.7 nM
- GI50 [23]: < 10 nM and 3.31 nM
- TGI [23]: < 18.3 nM and 30.5 nM
- GI50 [24]: < 10.5 nM and 7.98 nM
- GI50 [25]: < 14.2 nM and 2.99 nM
- TGI [25]: < 26.9 nM and 14.5 nM
- GI50 [26]: < 12.6 nM and 7.54 nM
- TGI [26]: 27.2 nM and 32.4 nM
- GI50 [27]: 49.1 nM and 9.11 nM
- TGI [27]: > 63400 nM
- GI50 [28]: < 10 nM and 4.46 nM
- TGI [28]: > 100000 nM
- GI50 [29]: < 10 nM and 6.68 nM
- TGI [29]: 24.4 nM and 43.6 nM
- GI50 [30]: < 10 nM and 4.64 nM
- TGI [30]: > 44800 nM
- GI50 [31]: < 10 nM and 2.36 nM
- TGI [31]: 8.05 nM
- GI50 [32]: < 10 nM and 4.41 nM
- GI50 [33]: < 10 nM and 9.02 nM
- TGI [33]: 138 nM and 52.4 nM
- GI50 [34]: 10.1 nM and 4.94 nM
- TGI [34]: > 100000 nM
- GI50 [35]: < 10 nM and 4.06 nM
- TGI [35]: > 100000 nM
- GI50 [36]: < 10 nM and 3.31 nM
- GI50 [37]: < 10 nM and 4.16 nM
- TGI [37]: 17.4 nM and 21.4 nM
- GI50 [38]: < 10 nM and 4.38 nM
- TGI [38]: 23.5 nM and 35.1 nM
- GI50 [39]: < 10 nM and 4.15 nM
- TGI [39]: 35.1 nM
- GI50 [40]: 162 nM and 146 nM
- TGI [40]: 2530 nM and > 6610 nM
- GI50 [41]: < 13.5 nM and 7.4 nM
- GI50 [42]: < 13.2 nM and 7.62 nM
- TGI [42]: 79.2 nM and 111 nM
- GI50 [43]: < 10 nM and 4.2 nM
- TGI [43]: > 100000 nM
- GI50 [44]: < 10.7 nM and 3.66 nM
- TGI [44]: > 100000 nM
- GI50 [45]: < 10 nM and 3.3 nM
- TGI [45]: > 10000 nM
- GI50 [46]: < 10 nM and 3.45 nM
- TGI [46]: > 100000 nM
- GI50 [47]: 15.5 nM and 4.49 nM
- TGI [47]: > 100000 nM
- GI50 [48]: < 10 nM and 3.31 nM
- GI50 [49]: < 10 nM and 2.19 nM
- TGI [49]: < 10 nM and 5.49 nM
- GI50 [50]: < 10 nM and 3.19 nM
- TGI [50]: < 10 nM and 11.2 nM
- GI50 [51]: < 10 nM and 3.22 nM
- TGI [51]: > 100000 nM
- GI50 [52]: < 10 nM and 3.48 nM
- TGI [52]: 57.6 nM and 373 nM
- GI50 [53]: 35.1 nM and 25.3 nM
- TGI [53]: > 35000 nM
- GI50 [54]: < 10 nM and 1.88 nM
- TGI [54]: < 10 nM and 4.46 nM
- GI50 [55]: 3.27 nM
- TGI [55]: > 10000 nM
- GI50 [56]: < 12.9 nM and 6.89 nM
- TGI [56]: 39.5 nM
- GI50 [57]: < 10 nM and 4.93 nM
- TGI [57]: 29.7 nM and 71.3 nM
- GI50 [58]: < 15.6 nM and 9.16 nM
- TGI [58]: 1950 nM and > 2070 nM
